Each structure is given as a SMILES string. Non-standard residues stand in square brackets, D forms with d. Residues, ends and D or L forms follow the SMILES beside them. *: point of attachment. AFC = O=c1cc(C(F)(F)F)c2ccc(N*)cc2o1; AMC = Cc1cc(=O)oc2cc(N*)ccc12

For the data set, the system named is plasma proteases.
Consider `CC(=O)N[C@@H](CCCNC(=N)N)C(=O)N[C@@H](CCCNC(=N)N)C(=O)N[C@@H](CCCCN)C(=O)N[C@@H](CCCCN)C(=O)N[C@H](C(=O)N[C@@H](Cc1ccc(O)cc1)C(=O)N1CCC[C@H]1C(=O)Nc1ccc2c(C)cc(=O)oc2c1)C(C)C` [LBL 10079] (Ac-RRKKVYP-{AMC}), for which the “Cleavage / fluorescence in plasma in the absence of LF” value (from here on “Cleavage / fluorescence in plasma”) is listed as “dramatic increase in fluorescence” and the “Specificity for LF” value was “non-specifically cleaved by plasma proteases”.
With `CC(=O)N[C@@H](CCCNC(=N)N)C(=O)N[C@H](CCCNC(=N)N)C(=O)N[C@H](CCCCN)C(=O)N[C@H](CCCCN)C(=O)N[C@H](C(=O)N[C@@H](Cc1ccc(O)cc1)C(=O)N1CCC[C@H]1C(=O)Nc1ccc2c(C)cc(=O)oc2c1)C(C)C` [LBL 10081] (Ac-R[dR][dK][dK]VYP-{AMC}), the “Cleavage / fluorescence in plasma” value was “minimal increase in hydrolysis”, the “Hydrolysis in plasma without LF” value is recorded as “minimal increase in hydrolysis” and the “Specificity for LF” value is “specific for LF”.
Regarding `CC(=O)N[C@H](CCCNC(=N)N)C(=O)N[C@H](CCCNC(=N)N)C(=O)N[C@H](CCCCN)C(=O)N[C@H](CCCCN)C(=O)N[C@H](C(=O)N[C@@H](Cc1ccc(O)cc1)C(=O)N1CCC[C@H]1C(=O)Nc1ccc2c(C)cc(=O)oc2c1)C(C)C` [LBL 10097] (Ac-[dR][dR][dK][dK]VYP-{AMC}), the “Cleavage / fluorescence in plasma” value was “minimal increase in hydrolysis”, the “Hydrolysis in plasma without LF” value is on record as “minimal increase in hydrolysis” and the “Specificity for LF” value is listed as “specific for LF”.
On to `CC(=O)N[C@@H](CCCNC(=N)N)C(=O)N[C@H](CCCNC(=N)N)C(=O)N[C@H](CCCCN)C(=O)N[C@H](CCCCN)C(=O)N[C@H](C(=O)N[C@@H](Cc1ccc(O)cc1)C(=O)N1CCC[C@H]1C(=O)Nc1ccc2c(C(F)(F)F)cc(=O)oc2c1)C(C)C` [LBL 10108] (Ac-R[dR][dK][dK]VYP-{AFC}), for which the “Cleavage / fluorescence in plasma” value is given as “neither peptide was cleaved”.

The record behind these values is patent publication US9932570B2 (priority 2015, dated 2018).
